Nine compounds from patent publication US11453697B1, “Cyclic di-nucleotide compounds as sting agonists” (Merck Sharp & Dohme Corp., priority 2015, dated 2022) can be followed below.

The target in one experiment is full-length HAQ STING (Homo sapiens (Human), UniProt Q86WV6, G230A/H232R/R293Q/R71H). The experiment can be described thus: 3H-cGAMP filtration binding assay (HAQ STING). Particulars: competition with tritiated cGAMP, HAQ STING membrane; read-out: EC50 (nM), 3H-cGAMP filtration binding assay for HAQ STING. An excerpt: The ability of compounds to bind STING is quantified by the ability to compete with tritiated cGAMP ligand for human STING receptor membrane using a radioactive filter-binding assay. The binding assay employs STING receptor obtained from Hi-Five cell membranes overexpressing full-length HAQ STING prepared in-house and tritiated cGAMP ligand also purified in-house.
full-length HAQ STING, sequence (Q86WV6 other isoform, or with tags, fused parts or gaps, stated change not applied): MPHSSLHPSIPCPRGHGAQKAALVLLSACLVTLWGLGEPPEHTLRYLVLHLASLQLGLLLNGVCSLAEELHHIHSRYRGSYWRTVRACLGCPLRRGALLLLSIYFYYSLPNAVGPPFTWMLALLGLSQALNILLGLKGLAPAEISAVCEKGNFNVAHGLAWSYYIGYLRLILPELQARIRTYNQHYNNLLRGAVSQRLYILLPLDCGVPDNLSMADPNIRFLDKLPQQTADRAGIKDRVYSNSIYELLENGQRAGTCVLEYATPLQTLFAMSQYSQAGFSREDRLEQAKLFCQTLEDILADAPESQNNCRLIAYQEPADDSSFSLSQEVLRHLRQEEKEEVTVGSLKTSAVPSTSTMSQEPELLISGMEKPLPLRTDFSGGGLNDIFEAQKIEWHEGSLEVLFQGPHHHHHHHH
The ability of compounds to bind STING is quantified by their ability to compete with tritiated cGAMP ligand for human STING receptor membrane using a radioactive filter-binding assay.
The basic HAQ STING filtration assay protocol is as follows:
Compound and membrane then preincubated for 60 min at RT to allow compound binding to equilibrate. Following equilibration, 8 nM of [^3H] c-GAMP ligand was prepared by diluting into assay buffer, and 50 uL of this working stock was then manually added to each well of the assay plate. […] The filter plates were then dried at 55° C. for 30 min using a pressurized VWR oven before 30 uL of Ultima GoldF scintillate was added to each well. Tritium levels for each reaction well were then measured using a PerkinElmer TopCount plate reader.
After normalization to controls, the percent activity for each compound concentration was calculated by measuring the amount of remaining radioactivity. The plot of percent activity versus the log of compound concentration was fit with a 4-parameter dose response equation to calculate EC50 values.
Consider `Nc1nc2c(ncn2[C@@H]2O[C@@H]3COP(=O)(S)O[C@H]4[C@@H](O)[C@H](n5ccc6c(N)ncnc65)O[C@@H]4COP(=O)(S)O[C@@H]2C3)c(=O)[nH]1` (single isomer, unassigned) [Example 77], for which the EC50 was determined as 161 nM.

As for `Nc1nc2c(ncn2[C@@H]2O[C@@H]3COP(=O)(S)O[C@H]4[C@@H](O)[C@H](n5ccc6c(N)ncnc65)O[C@@H]4COP(=O)(S)O[C@@H]2C3)c(=O)[nH]1` (single isomer, unassigned) [Example 78], the EC50 amounted to 14.6 nM.

`Nc1nc2c(ncn2[C@@H]2O[C@@H]3COP(=O)(S)O[C@H]4[C@@H](O)[C@H](n5ccc6c(N)ncnc65)O[C@@H]4COP(=O)(S)O[C@@H]2C3)c(=O)[nH]1` (single isomer, unassigned) [Example 79]: the EC50 worked out at 103 nM.

Turning to `Nc1nc2c(ncn2[C@@H]2O[C@@H]3COP(=O)(S)O[C@H]4[C@@H](O)[C@H](n5ccc6c(N)ncnc65)O[C@@H]4COP(=O)(S)O[C@@H]2C3)c(=O)[nH]1` (single isomer, unassigned) [Example 80], the EC50 was found to be 1.3 nM.

As to `Nc1nc2c(ncn2[C@@H]2O[C@@H]3COP(=O)(S)OC4[C@@H](COP(=O)(S)O[C@H]2C3)O[C@@H](n2cnc3c(N)ncnc32)[C@H]4F)c(=O)[nH]1` (single isomer, unassigned) [Example 132], the EC50 came out at 25.9 nM.

For the compound `Nc1nc2c(nnn2[C@@H]2O[C@@H]3COP(=O)(O)O[C@H]4[C@@H](O)[C@H](n5cnc6c(N)ncnc65)O[C@@H]4COP(=O)(O)O[C@@H]2[C@@H]3O)c(=O)[nH]1` [Example 69, 5-amino-3-[(5R,7R,8R,12aR,14R,15R,15aS,16R)-14-(6-amino-9H-purin-9-yl)-2,10,15,16-tetrahydroxy-2,10-dioxidooctahydro-12H-5,8-methanofuro[3,2-l][1,3,6,9,11,2,10]pentaoxadiphosphacyclotetradecin-7-yl]-3,6-dihydro-7H-[1,2,3]triazolo[4,5-d]pyrimidin-7-one], the EC50 was less than 1 nM.

Take `Nc1nc2c(ncn2[C@@H]2O[C@@H]3CO[P@@](O)(=S)O[C@H]4[C@H](F)[C@H](n5cnc6c(N)ncnc65)O[C@@H]4CO[P@@](O)(=S)O[C@@H]2C3)c(=O)[nH]1` [Example 130, 2-amino-9-[(2R,5S,7R,8R,10R,12aR,14R,15S,15aR)-14-(6-amino-9H-purin-9-yl)-15-fluoro-2,10-dihydroxy-2,10-disulfidooctahydro-12H-5,8-methanofuro[3,2-l][1,3,6,9,11,2,10]pentaoxadiphosphacyclotetradecin-7-yl]-1,9-dihydro-6H-purin-6-one]: the EC50 is less than 1 nM.

A further experiment relates to IFN-β secretion in THP1 cells. As to the kind of experiment: IFN-β secretion in THP1 cell culture (5 h). The format is cell-based, human. Particulars: IFN-β secretion in THP1 cell culture, 5 h; compound at 30 μM; percent activation relative to 2′3′-cGAMP. Here is the method: The ability of compounds to stimulate the secretion of interferon-beta from THP1 cells was measured using a human IFN-β AlphaLISA kit (Perkin Elmer, Cat. No. AL265F). The basic protocol is as follows:
The cell viability and count was ascertained using a Beckman Coulter V-Cell XR cell counter. The cells suspension was centrifuged at 200×g for 5 min at RT. […] Subsequent liquid transfers were performed using either a Matrix electronic multichannel pipette or an Agilent Bravo Automated Liquid Handling Platform.
The assay was started by dispensing 40 μL of the previously prepared cell suspension into the wells of the plate containing compounds. After 5 h incubation at 37° C., 5% CO2 in a humidified atmosphere, the plate of cells and compounds was centrifuged at 200×g for 5 min at RT. […] To these supernatant-containing wells was added 10 μL of 5× Anti-Analyte Acceptor beads (50 μg/mL of AlphaLISA HiBlock Buffer) and incubated for 30 min at RT while shaking on an orbital plate shaker. To each well was added 10 μL of 5× Biotinylated Antibody Anti-analyte (5 nM in AlphaLISA HiBlock Buffer) and incubated on an orbital plate shaker for 60 min at RT or overnight at 4° C. To each well was added 25 μL of 2× SA-Donor beads (80 μg/mL in AlphaLISA HiBlock Buffer) and incubated for 30-45 min at RT in the dark while shaking on an orbital plate shaker. The plate was then read on a Perkin Elmer Envision (λex=680 nm, λem=[…]). The percent effect of the AlphaLISA signal at each compound concentration was calculated based on 30 uM cGAMP positive controls and 0.3% DMSO negative controls. The plot of percent effect versus the log of compound concentration was fit with a 4-parameter concentration response equation to calculate EC50 values.
Compounds of the disclosure were evaluated for IFN-β secretion in THP1 cell culture as described above.
Consider `Nc1nc2c(ncn2[C@@H]2O[C@@H]3COP(=O)(S)O[C@H]4[C@@H](O)[C@H](n5ccc6c(N)ncnc65)O[C@@H]4COP(=O)(S)O[C@@H]2C3)c(=O)[nH]1` (single isomer, unassigned) [Example 77], for which the “% Effect at 30 μM relative to 2′3′-cGAMP” value is given as 39%.

`Nc1nc2c(ncn2[C@@H]2S[C@@H]3COP(=O)(O)O[C@H]4[C@H](F)[C@H](n5cnc6c(=O)[nH]cnc65)O[C@@H]4COP(=O)(S)O[C@@H]2[C@@H]3O)c(=O)[nH]1` (stereo partly drawn) [Example 339, 2-amino-9-[(5R,7R,8R,12aR,14R,15S,15aR,16S)-15-fluoro-2,16-dihydroxy-2,10-dioxido-14-(6-oxo-1,6-dihydro-9H-purin-9-yl)-10-sulfanyloctahydro-12H-5,8-methanofuro[3,2-l][1,3,9,11,6,2,10]tetraoxathiadiphosphacyclotetradecin-7-yl]-1,9-dihydro-6H-purin-6-one]: the “% Effect at 30 μM relative to 2′3′-cGAMP” value amounted to 175%.

With `Nc1nc2c(nnn2[C@@H]2O[C@@H]3COP(=O)(S)O[C@H]4[C@H](F)[C@H](n5cnc6c(=O)[nH]cnc65)O[C@@H]4COP(=O)(S)O[C@@H]2[C@H]3F)c(=O)[nH]1` (stereo partly drawn) [Example 348, 5-amino-3-[(5R,7R,8S,12aR,14R,15S,15aR,16S)-15,16-difluoro-2,10-dioxido-14-(6-oxo-1,6-dihydro-9H-purin-9-yl)-2,10-disulfanyloctahydro-12H-5,8-methanofuro[3,2-l][1,3,6,9,11,2,10]pentaoxadiphosphacyclotetradecin-7-yl]-3,6-dihydro-7H-[1,2,3]triazolo[4,5-d]pyrimidin-7-one], the “% Effect at 30 μM relative to 2′3′-cGAMP” value amounted to 8%.
